{"source": "patent US5488049A", "about": "“Method of treating learning and memory disorders using benzothiadiazide derivatives as nootropic agents” (FIDIA - Georgetown Institute for the Neuro-Sciences, priority 1993, dated 1996)", "key": {"[1]": {"system": "EPSCs elicited in CAl pyramidal neurons", "assay": "Excitatory postsynaptic currents (EPSCs) in CAl pyramidal neurons in hippocampal slices on stimulation of Schaffer collateral afferents", "type": "cell-based, rat", "description": "Young rats (12-16 days old) were decapitated and the brains quickly removed and placed in ice-cold Ringer solution. Thin slices of hippocampus (250 μm) were then cut with a vibratome slicer (Lancer, St. Louis, Mo.) and kept in Ringer solution at 37° C. until use. The experiments were carried out at room temperature with the slice totally submerged in a 1 ml volume recording chamber and under continuous perfusion with Ringer solution at a rate of 6 ml/min using an upright Hoffman modulation contrast microscope (Carl Zeiss, Germany) equipped with a 40×water immersion objective.\nIonic currents in whole-cell configuration and outside-out excised membrane patches were monitored using the patch clamp technique (15).\nTraces were filtered at 3 KHz (-3 dB, 8-pole, lowpass Bessel filter, Frequency Devices), and stored in an LSI 11/73 computer (INDEC System, Sunnyvale, Calif.) after digitization (10 KHz) with a Data Translation analog to digital converter. Decay time constants of EPSC and glutamate-activated currents were determined from exponential fitting with the 11/73 system by using an entirely automated least-squares procedures (see Vicini and Schuetze, 1985, for further details). This method uses a Simplex algorithm (Caceci and Cacheris, 1984) to fit the data to either a single or double exponential equation of the form I(t)=If exp(-t/tauf)+Is exp(-t/taus), where If and Is are the amplitudes of the sIPSC fast and slow components, and tauf and taus are their respective decay time constants. Peak amplitudes were measured at the absolute maximum of the currents, taking into account the noise of the baseline and noise around the peak. Rise times were measured as the time elapsed from 20 to 80% of the peak amplitude of the response.\nThe action of nootropic drugs on the excitatory postsynaptic currents (EPSCs) elicited in CAl pyramidal neurons in hippocampal slices was investigated by stimulation of the Schaffer collateral afferents."}, "rats": {"system": "rats", "assay": "Water maze: drug action on learning and retention in rats", "type": "in vivo, rat", "description": "Rats (male, 250 g) were trained once a day in maze A (See FIG. 8B forced maze) for 2 consecutive days. The day of the experiment, after a first exposure to maze A, IDRA 21 (15 mg/kg) Aniracetam (500 mg/kg) or vehicle (cont) were administered per oral gavage and 30 min later the animals were exposed once again to Maze A. After 30 min of interatrial rest, rats were exposed to Maze B (see FIG. 8C open maze).\nThe water maze apparatus was adapted from Kant et al., (16), and consists of three concentric squares placed inside a 5 ft plastic pool (FIG. 6). The walls of the maze are 50 cm in height and are constructed from black opaque plastic to allow for tracking of the animal with an overhead camera. The alleys between the walls are 16 cm wide. In the center of each wall there is a removable doorway. The opening of doorways allows for the construction of mazes with an increasing number of potential error possibilities. (See diagram for Maze A and Maze B, FIG. 6). The maze is located in a room 10'×15' at constant temperature (18° C.) adjacent to the vivarium. The room is illuminated with overhead lights which also serve as spatial cues. Additional spatial cues are provided by the position of the investigator and a number of small white x's placed within specific locations upon the walls of the maze. The maze is filled with water (18°)C. to a depth of 25 cm.\nSeven days prior to drug studies, rats were tested in Maze A (forced maze) on two consecutive days. Pretesting with the \"forced\" maze enabled the assessment of the animals' general motor, sensory and motivational abilities, and facilitated the exclusion of those animals unable to meet pretesting criteria. Performance was assessed by determining either swim time, errors committed, or path length measured with a computerized recording device. Errors are defined as whole body entry into alleys not leading directly to the exit platform (i.e., shaded portions in FIG. 6). Rats were excluded from the study if their swim path length and/or number of errors were two standard deviations above the mean […] of the entire group. During the first two trials, the rats were placed into the center of the maze and given a maximum of 180 secs to find the \"exit platform\" located at the \"finish\" (FIG. 6). The time required, the number of errors, and the path length were recorded for each trial. […] Rats meeting the criteria were randomly divided into groups. On the day of the experiment, a single trial was run (Maze A) in order to establish a baseline of performance. Following drug administration, the rats were again tested once on Maze A to establish a baseline of post-treatment performance. Following an additional interatrial interval of 30 min., the rats were tested on Maze B."}}, "data": [{"smiles": "CC1Nc2ccc(Cl)cc2S(=O)(=O)N1", "note": "(racemic) [IDRA 21, 7-chloro-3-methyl-3,4-dihydro-2H 1,2,4-benzothiadiazine S-S dioxide]", "values": [{"measurement": "Emax at 1000 µM", "setting": "[1]; Rattus norvegicus, Pyramidal neuron, read-out: efficacy in increasing delay time of AMPA current (EPSC) relative to diazoxide", "result": 300, "unit": "%"}, {"measurement": "Emax", "setting": "[1]; Rattus norvegicus, Pyramidal neuron, read-out: response relative to diazoxide (electrophysiology summary)", "result": 300, "unit": "%"}, {"measurement": "response relative to aniracetam (electrophysiology summary)", "setting": "[1]; summary statement", "result": "one order of magnitude larger than that of aniracetam"}, {"measurement": "efficacy in improving water maze performance of trained rats, vs aniracetam", "setting": "rats; 0.2 μmol icv vs aniracetam 1.8 μmol icv", "result": "at least as efficacious as aniracetam"}, {"measurement": "performance in water maze (errors and time, Maze B)", "setting": "rats; 15 mg/kg os", "result": "significantly improves the performance of rats, reducing the number of errors and the time interval in accomplishing the task in Maze B"}, {"measurement": "improvement of water maze performance", "setting": "rats; FIG. 8A, IDRA 21 15 mg/kg, Aniracetam 500 mg/kg oral", "result": "improve water performance in rats"}, {"measurement": "significance (P) of water maze performance vs control", "setting": "rats; IDRA 21 15 mg/kg, Aniracetam 500 mg/kg per oral gavage, at least 5 rats", "result": "< 0.05"}, {"measurement": "potency vs aniracetam in potentiating learning and enhancing cognitive performance", "setting": "rats; racemic form, naive rats and rats with alprazolam-disrupted learning", "result": "at least an order of magnitude more potent than aniracetam"}]}]}
